Test results from US10098830B2, “Oral care compositions” (BASF SE, priority 2014, dated 2018).
Like-named read-outs stand apart in the source and are kept apart here.

Experiments:
[1] = test system: multispecies saliva derived biofilm; assay: Substantivity: multispecies saliva derived biofilm growth after 24 hr on pre-treated hydroxyl apatite surfaces; format: cell-based, human saliva; details: for % decrease in biofilm as compared to growth control (negative indicates increased biofilm): saliva biofilm, 24 hr, pre-treated surface
Protocol: Method to evaluate the substantivity of polymers to hydroxyl apatite surfaces and the effects these polymers have on the growth of Streptococcus mutans and Saliva derived biofilms. For Multispecies Saliva Biofilms: Hydroxy apatite (HA) coated surfaces are pellicle treated with pooled human saliva 200 ul/per well of a 96 well clear plate for 30 minutes at 37° C. aerobically. […] The peg lids are transferred to a clear 96 well plate containing 200 ul of the designated treatments below in Jordan's with 5% sucrose. […] After 30 mins of treatment the two pegs are transferred to a 96 well plate containing 200 ul of water and it is rinsed for 10 min at 500 rpm. […] After incubation the peg lids are transferred to a rinse plate containing 200 ul of water for 5 minutes and then transferred to white 96 well plate containing 200 ul Bac-titer-Glo, this is shaken for 5 minutes and read for luminescence.

[2] = test system: S. mutans (ATCC #25175) biofilm; assay: Substantivity: Streptococcus mutans biofilm growth after 24 hr on pre-treated hydroxyapatite surfaces; format: cell-based; details: pre-treated surface
Protocol: Method to evaluate the substantivity of polymers to hydroxyl apatite surfaces and the effects these polymers have on the growth of Streptococcus mutans and Saliva derived biofilms. For S. mutans Biofilms: S. mutans (ATCC #25175) is inoculated into 10 mL BHI and incubated statically at 37° C. overnight. […] Hydroxy apatite coated peg lids are pellicle treated with sterile artificial saliva 200 ul/per well of a 96 well clear plate for 30 minutes at 37° C. aerobic. The peg lids are transferred to a clear 96 well plate containing 200 ul of the designated treatments below in Jordan's with 5% sucrose. […] After 30 mins of treatment the two pegs are transferred to a 96 well plate containing 200 ul of water and it is rinsed for 10 min at 500 rpm. […] After incubation the peg lids are transferred to a rinse plate containing 200 ul of water for 5 minutes and then transferred to white 96 well plate containing 200 ul Bac-titer-Glo, this is shaken for 5 minutes and read for luminescence. Results: Polymers are evaluated using the substantivity for biofilm prevention method indicated above for both S. mutans and multispecies saliva derived biofilms.

[3] = test system: 48 hour saliva biofilms; assay: Disruption of established 48 hour saliva biofilms; format: cell-based, pooled human saliva; details: for Disruption of 48 hour saliva biofilms after treatment for 5 minutes: Chelate control: 0.1% Trilon Ca
Protocol: Method to screen combinations of actives, example polymers and chelates to identify potential synergies for biofilm disruption.
Polystyrene Pegs are pellicle treated with fresh pooled human saliva for 30 minutes at 37° C. aerobically. Saliva is inoculated into BHI broth at a final concentration of 10% saliva. 200 ul of inoculated or uninoculated media is added to each well. The pegs are added to the growth media and incubated anaerobically 37° C.
At 24 hr. the pegs are removed and transferred to a fresh plate containing 200 ul of sterile BHI. And incubated anaerobically for another 24 hr at 37 C.
After 48 hr of growth time, pegs containing the biofilms are transferred to a 96 well rinse plate containing 200 ul of or BHI. Following a 5 minute rinse at room temperature, the pegs are transferred to a treatment plate containing combinations of actives, chelate and polymers. This is followed a 5 minute treatment (shaking at 500 rpm). The treated pegs are transferred to a white 96 well plate containing 200 ul Bac-titer-Glo reagent—this is incubated at room temperature for 5 minutes (shaking) and read on a plate reader for luminescence.
Polymers are evaluated using the Biofilm disruption model as described above.
Example polymers (xylitol-EDTA polymer and xylitol-arginine-succinic acid polymer) are combined with example actives (epsilon-polylysine and chlorhexidine) and a chelator (Ca EDTA).

[4] = test system: S. mutans (ATCC #25175); assay: Inhibition of bacterial acid production (Bromo Cresol Purple broth, OD 588 / OD 427); format: cell-based, Streptococcus mutans
Protocol: Method to observe the acid production of S. mutans in a medium containing a pH indicator and glucose. Observe how xylitol and the example polymers affect acid production. A culture of S. mutans (ATCC #25175) is grown statically overnight in 10 mL liquid broth (BHI) at 37° C. […] The no treatment control has 20 ul water added. To each experimental well 180 of the inoculated BCP broth is added. To the no inoculum control 20 ul water and 20 ul filter sterilized overnight culture broth are added. […] Both wavelengths are measured every hour for several hours but before evaporation became an issue. The plates are shaken for 10 seconds before reading.

[5] = test system: porcine esterase; assay: Enzymatic degradation of xylitol polymer by esterase (pH change); format: in vitro ADME
Protocol: The method for determining enzymatic breakdown of polymer is determined by Sigma Quality Control Test Procedure: Enzymatic Assay of Esterase. This assay however, exchanges Ethyl Butyrate solution with solution of test polymer. pH change is monitored over time as an indicator of esterase activity and polymer degradation.
Degradation of example polymers is conducted using porcine esterase. Esterase activity decreases the pH of the solution. The pH is monitored at the start and end of the assay (90 minutes).

[6] = test system: multispecies saliva biofilm; assay: Prevention of multispecies saliva biofilm development on hydroxy apatite pegs (Bac-titer-Glo); format: cell-based, pooled human saliva; details: 2% xylitol
Protocol: Prevention of Biofilm Development Multispecies Saliva Biofilms: Hydroxy apatite (HA) coated surfaces of a 96 peg lid (Biosurface Technologies, Boseman, Mont.) are pellicle treated with pooled human saliva 200 μl/per well of a 96 well clear plate for 30 minutes at 37° C. aerobically. Into each well of the growth plate, clear 96 well plate, 160 μl inoculated Brain Heart Infusion (BHI) broth is added. Test solutions are added to a desired final concentration and water is added to bring the final volume to 200 μl. The hydroxyl apatite coated pegs are added to. […] Polymers are evaluated using the biofilm prevention method indicated above for both S. mutans and multispecies saliva derived biofilm.

[7] = test system: S. mutans 25175 biofilm; assay: Prevention of Streptococcus mutans biofilm development on hydroxy apatite pegs (Bac-titer-Glo); format: cell-based; details: 2% xylitol
Protocol: Prevention of Biofilm Development S. mutans Biofilms: S. mutans 25175 is inoculated into 10 mL BHI and incubated statically at 37° C. overnight. […] Hydroxy apatite coated peg lids are pellicle treated with sterile artificial saliva 200 ul/per well of a 96 well clear plate for 30 minutes at 37° C. aerobic. […] Test solutions are added to a desired final concentration and water is added to bring the final volume to 200 ul. […] Polymers are evaluated using the biofilm prevention method indicated above for both S. mutans and multispecies saliva derived biofilm.

CCCCCCCCCCCCCCCC[n+]1ccccc1 [Cetylpyridinium chloride]
% decrease in biofilm as compared to growth control (negative indicates increased biofilm) ([1]; % treatment 0.070%): 98%
% decrease in biofilm as compared to growth control (negative indicates increased biofilm) ([2]; % treatment 0.070%): 100%

[H]/N=C(\N/C(=N/[H])NCCCCCCNC(=N)NC(=N)Nc1ccc(Cl)cc1)Nc1ccc(Cl)cc1 [Chlorhexidine, chlorhexidine]
Disruption of 48 hour saliva biofilms after treatment for 5 minutes: Active control ([3]; 0.06% Chlorhexidine): −10^

O=C(O)CN(CCN(CC(=O)O)CC(=O)O)CC(=O)O [EDTA, ethylenediaminetetraacetic acid]
substantivity (retention of biofilm prevention activity after rinsing), in words ([1]; observations consistent for both S. mutans and saliva biofilms): also substantive
% decrease in biofilm as compared to growth control (negative indicates increased biofilm) ([1]; % treatment 0.083%): 17%
% decrease in biofilm as compared to growth control (negative indicates increased biofilm) ([1]; % treatment 0.165%): 25%
% decrease in biofilm as compared to growth control (negative indicates increased biofilm) ([1]; % treatment 0.330%): 32%
% decrease in biofilm as compared to growth control (negative indicates increased biofilm) ([1]; % treatment 0.660%): 60%
% decrease in biofilm as compared to growth control (negative indicates increased biofilm) ([1]; % treatment 1.320%): 79%
effect on acid production of S. mutans (change of OD 588 / OD 427, pH), in words [4]: no or little change
% decrease in biofilm as compared to growth control (negative indicates increased biofilm) ([2]; % treatment 0.083%): 13%
% decrease in biofilm as compared to growth control (negative indicates increased biofilm) ([2]; % treatment 0.165%): 37%
% decrease in biofilm as compared to growth control (negative indicates increased biofilm) ([2]; % treatment 0.330%): 44%
% decrease in biofilm as compared to growth control (negative indicates increased biofilm) ([2]; % treatment 0.660%): 46%
% decrease in biofilm as compared to growth control (negative indicates increased biofilm) ([2]; % treatment 1.320%): 41%

CCOC(C)=O [Ethyl Acetate]
End pH ([5]; 0.2% (positive control), porcine esterase, end of the assay (90 minutes)): 5.00
Start pH ([5]; 0.2% (positive control), porcine esterase, start of assay): 8.30

N=C(N)NCCC[C@H](N)C(=O)O [L-Arginine]
% decrease in biofilm as compared to growth control (negative indicates increased biofilm) ([1]; % treatment 0.070%): −28%
% decrease in biofilm as compared to growth control (negative indicates increased biofilm) ([1]; % treatment 0.140%): −20%
% decrease in biofilm as compared to growth control (negative indicates increased biofilm) ([1]; % treatment 0.280%): −24%
% decrease in biofilm as compared to growth control (negative indicates increased biofilm) ([1]; % treatment 0.560%): −22%
% decrease in biofilm as compared to growth control (negative indicates increased biofilm) ([1]; % treatment 1.120%): 49%
effect on acid production of S. mutans (change of OD 588 / OD 427, pH), in words [4]: no acid inhibiting effects
% decrease in biofilm as compared to growth control (negative indicates increased biofilm) ([2]; % treatment 0.070%): −40%
% decrease in biofilm as compared to growth control (negative indicates increased biofilm) ([2]; % treatment 0.140%): −18%
% decrease in biofilm as compared to growth control (negative indicates increased biofilm) ([2]; % treatment 0.280%): −59%
% decrease in biofilm as compared to growth control (negative indicates increased biofilm) ([2]; % treatment 0.560%): −53%
% decrease in biofilm as compared to growth control (negative indicates increased biofilm) ([2]; % treatment 1.120%): −29%

O=C([O-])CN(CCN(CC(=O)[O-])CC(=O)[O-])CC(=O)[O-].[Ca+2].[Na+].[Na+] [Trilon Ca]
Disruption of 48 hour saliva biofilms after treatment for 5 minutes: Chelate control ([3]; Chlorhexidine / Xylitol-EDTA polymer series): −1
Disruption of 48 hour saliva biofilms after treatment for 5 minutes: Chelate control ([3]; e-polylysine / Arginine-Xylitol-Succinic Acid Terpolymer series): −10

OC[C@@H](O)[C@H](O)[C@@H](O)CO [Xylitol]
percent reduction from the untreated control [6]: 17%
percent reduction from the untreated control [7]: −1%
effect on acid production of S. mutans (change of OD 588 / OD 427, pH), in words [4]: acid inhibition at all concentrations tested

O=C(O)CC(O)(CC(=O)O)C(=O)O [citric acid]
effect on acid production of S. mutans (change of OD 588 / OD 427, pH), in words [4]: no or little change

O=C(O)CCC(=O)O [succinic acid]
effect on acid production of S. mutans (change of OD 588 / OD 427, pH), in words [4]: no or little change

Xylitol-Carboxymethyl Cellulose Polymer
End pH [5]: 7.47
Start pH [5]: 8.37
degradation by esterase, in words [5]: degraded by the esterase
